This note sets out measurements from ChEMBL document CHEMBL1201862, “PubChem BioAssay data set” (2004).

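Five concentrations, 48 hours, 96-well plates. Here, GI50 denotes the concentration required for 50% inhibition of growth.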 Activity calls are given as the source filed them. No stated cut-off is given here; in the data, active = GI50 up to about 1.1 µM and inactive = higher. Where only a bound is given, the exact number is not on record here.

Among the test systems are DU-145; UO-31; OVCAR-4; Malme-3M; LOX IMVI; A498; EKVX; SK-OV-3; 786-0; PC-3; SF-539; BT-549; MDA-N; TK-10; MCF7; SNB-19; SF-295; HT-29; K562; ACHN.
Common to all, as to test: growth of human tumour cells (NCI), 48 h

For the compound `c1ccc(CN2CCc3[nH]c4ccccc4c3C2)cc1`, the GI50 was 31 µM (inactive) with DU-145; 31.8 µM (inactive) with UO-31; 34.8 µM (inactive) with OVCAR-4; 17.8 µM (inactive) in the test on Malme-3M; 18.3 µM (inactive) with LOX IMVI; 26.6 µM (inactive) in the test with A498. Further, the GI50 was 46.5 µM (inactive) in the test on EKVX; 58.3 µM (inactive) in the test on SK-OV-3; 22 µM (inactive) in the test on 786-0; 25.4 µM (inactive) in the test with PC-3; 25 µM (inactive) in the test with SF-539; 30.5 µM (inactive) in the test with BT-549. For the same compound, the GI50 was 22.1 µM (inactive) in the test on MDA-N; 23.9 µM (inactive) in the test with TK-10; 17.1 µM (inactive) in the test with MCF7; 69.8 µM (inactive) in the test with SNB-19; 29.9 µM (inactive) with SF-295; 17.3 µM (inactive) in the test on HT-29. The figures for the GI50 in the test with K562 and with ACHN were 19.1 µM (inactive) and 33.9 µM (inactive), respectively.
Regarding `COc1ccc(/C=C\c2cc(OC)c(OC)c(OC)c2)cc1OC`, the GI50 in the test with DU-145 was 0.286 µM (active); with UO-31, 2.21 µM (inactive); with OVCAR-4, 15.8 µM (inactive); in the test on Malme-3M, 0.0746 µM (active); in the test on LOX IMVI, 0.32 µM (active); with A498, 0.236 µM (active). Also, the GI50 in the test on EKVX is 0.188 µM (active); in the test with SK-OV-3, 0.114 µM (active); in the test on 786-0, 0.198 µM (active); in the test on PC-3, 0.112 µM (active); with SF-539 it was 0.113 µM (active); in the test on BT-549, 0.912 µM (active). The GI50 in the test with MDA-N is 0.0165 µM (active); with TK-10, 0.186 µM (active); with MCF7, 0.0968 µM (active); in the test on SNB-19 it was 0.153 µM (active); in the test with SF-295, 0.108 µM (active); in the test on HT-29, 0.124 µM (active). For the same compound, the GI50 in the test on K562 was 0.12 µM (active); with ACHN, 0.348 µM (active).
Take `COc1ccc(C2Oc3ccc(Cl)cc3C=C2[N+](=O)[O-])cc1OC` (stereo not given): the GI50 with DU-145 is 1.62 µM (inactive); with UO-31, 2 µM (inactive); in the test on OVCAR-4, 1.93 µM (inactive); in the test with Malme-3M it was 1.75 µM (inactive); in the test on LOX IMVI it was 0.32 µM (active); with A498, 3.37 µM (inactive). Moreover, the GI50 was 2.72 µM (inactive) in the test with EKVX; 2.3 µM (inactive) in the test on SK-OV-3; 0.388 µM (active) with 786-0; 1.32 µM (inactive) with PC-3; 1.55 µM (inactive) with SF-539; 1.15 µM (inactive) in the test with BT-549. Moreover, the GI50 with MDA-N is 0.231 µM (active); in the test with TK-10, 1.51 µM (inactive); in the test on MCF7, 0.776 µM (active); in the test on SNB-19, 1.92 µM (inactive); with SF-295, 1.48 µM (inactive); with HT-29 it was 1 µM (active). Also, the GI50 in the test with K562 is 0.164 µM (active); with ACHN it was 1.43 µM (inactive).
For the compound `CCC(=O)O[C@H]1CC[C@H]2[C@@H]3CCC4=CC(=O)C=C[C@]4(O)[C@H]3CC[C@]12C`, the GI50 is 22.8 µM (inactive) with DU-145; 64.1 µM (inactive) with UO-31; 28.3 µM (inactive) with OVCAR-4; 48 µM (inactive) in the test on Malme-3M; 16.7 µM (inactive) with LOX IMVI; > 100 µM (inactive) with A498. Moreover, the GI50 in the test on EKVX is 25.9 µM (inactive); in the test on SK-OV-3, 82.6 µM (inactive); in the test on 786-0, 33.7 µM (inactive); with PC-3 it was 23.8 µM (inactive); in the test with SF-539, 29.6 µM (inactive); in the test with BT-549, 20.5 µM (inactive). Also, the GI50 is 2.95 µM (inactive) with MDA-N; 57.4 µM (inactive) with TK-10; 23.9 µM (inactive) in the test with MCF7; 28.4 µM (inactive) in the test with SNB-19; 26.1 µM (inactive) with SF-295; 19.1 µM (inactive) in the test with HT-29. Further, the GI50 in the test with K562 is 3.39 µM (inactive); in the test on ACHN it was 55.7 µM (inactive).
